Values joined by “and” are separate entries in the source; they are usually repeats but may differ in a detail not shown here. Equal entries are not always repeated.
Test system: HCC1806 breast cancer cells
Experiment: MTT proliferation assay on HCC1806 cells
Format: cell-based, human
Method: HCC 1806—Primary Acantholytic Squamous Cell Carcinoma
(Colorimetric assays using the tetrazolium salt thiazolyl blue, also termed MTT, after methyl-thiazolyl-tetrazolium)
Around 1500 cells are in placed in each well in 96 well plates, 10 extracts (tested 2 concentrations each, 0.007 mg/ml and 0.015 μg/μl) were added to separate wells. Untreated cells and DMSO-treated cells were used as controls in separate wells. Experiments were performed in triplicate. A total number of 9×10^4 cells are required at each concentration. The well plates were purchased from Sigma Aldrich.
Mix cells and medium nicely, add 150 μl per well, plate eight 96-well plates for each experiment.
Place 96-well plates in a 37° C. incubator with 5% CO2. After 24 hours, the medium was changed to the medium containing extracts.
The MTT assay was performed from Day 0 to Day 7 by adding 15 μl MTT labeling reagent into each well and incubated at 37° C. for 4 hours. Thereafter, 150 μl solubilization solution was added into each well and incubated overnight in the 37° C. incubator with 5% CO2.
3-(4,5-Dimethylthiazol-2-yl)-2,5-diphenyltetrazolium bromide assays were performed using the Cell Proliferation Kit I (Roche Diagnostics GmbH) as the manufacturer's instructions. The absorbance of the samples was measured at 595 nm using a microtiter plate reader (FLUOstar Omega, BMG LABTECH). The experiments were done in triplicate.

| SMILES | effective (active) concentration on HCC1806 cancer cells (pure cannabinoid) | effective concentration on HCC1806 cancer cells, converted (pure cannabinoid, conversion of 15 μM) [µg/µL] | effectiveness of pure cannabinoid on HCC1806 cancer cells (20 μM (0.0063 μg/μl)) |
| --- | --- | --- | --- |
| C=C(C)[C@@H]1CCC(C)=C[C@H]1c1c(O)cc(CCCCC)cc1O [CBD, cannabidiol] | 15 to 20 µM and 15 µM | 0.0047 |  |
| CCCCCc1cc(O)c2c(c1)OC(C)(C)[C@@H]1CCC(C)=C[C@@H]21 [THC, tetrahydrocannabinol] |  |  | only marginally and insignificantly effective |

Reference: patent publication US20200197461A1, “NOVEL CANNABIS SATIVA LINES AND EXTRACTS WITH ANTI-CANCER PROPERTIES” (Pathway RX Inc., priority 2018, published 2020)
